Measured values: patent publication US4235911A, “Hydantoin derivatives” (Pfizer Inc., priority 1979, dated 1980)

Assays:
[1] = tested on: sorbitol levels in the lens and sciatic nerve of diabetic subjects; assay: lowering of sorbitol levels in the lens and nerve of diabetic subjects; format: in vivo; details: statement in words
Protocol: (§1) The activity of the compounds of the present invention, as agents for the control of chronic diabetic complications, is determined by their ability to successfully pass one or more of the following standard biological and/or pharmacological tests, viz., (1) measuring their ability to inhibit the enzyme activity of isolated aldose reductase; (2) measuring their ability to reduce or inhibit sorbitol accumulation in the sciatic nerve of acutely streptozotocinized (i.e., diabetic) rats; (3) measuring their ability to reverse already-elevated sorbitol levels in the sciatic nerve and lens of chronic streptozotocin-induced diabetic rats; (4) measuring their ability to prevent or inhibit galactitol formation in the lens of acutely galactosemic rats, and (5) measuring their ability to delay cataract formation and reduce the severity of lens opacities in chronic galactosemic rats.

[2] = tested on: galactitol levels in the lens of galactosemic subjects; assay: lowering of galactitol levels in the lens of galactosemic subjects; format: in vivo; details: statement in words
Protocol: as §1

[3] = molecular target: T1, aldose reductase (Bos taurus, UniProt P16116); assay: inhibition of isolated aldose reductase enzyme activity (procedure of S. Hayman et al. as modified by K. Sestanj et al.); format: biochemical, calf; details: for IC50: partially purified aldose reductase from calf lens, 50% reduction in enzyme activity, read-out: Concentration Level (IC50); for aldose reductase inhibitory activity: statement in words
T1 construct: partially purified aldose reductase enzyme obtained from calf lens; from tissue; host or cells: calf lens
Protocol: as §1, with “rats. The following tetrahydroquinoline-derived spiro-hydantoin compounds of Examples 1-4, respectively, were tested for their ability to reduce or inhibit aldose reductase enzyme activity via the procedure of S. Hayman et al., as described in the Journal of Biological Chemistry, Vol. 240, p. 877 (1965) and as modified by K. Sestanj et al. in U.S. Pat. No. 3,821,383. In every case, the substrate employed was partially purified aldose reductase enzyme obtained from calf lens.” for “rats.”

[4] = tested on: formation of sorbitol levels in diabetic rats; assay: inhibition of formation of sorbitol levels in diabetic rats, oral; format: in vivo, rat; details: 5.0 mg./kg. to 25 mg./kg.
Description: (§2) As previously indicated, the tetrahydroquinoline-derived spiro-hydantoin compounds of this invention are all readily adapted to therapeutic use as aldose reductase inhibitors for the control of chronic diabetic complications, in view of their ability to reduce lens sorbitol levels in diabetic subjects to a statistically significant degree. […] The other compounds of this invention also cause similar results. Furthermore, all the herein described compounds of this invention can be administered by either the oral or parenteral routes of administration, for the present purposes at hand, without causing any significant untoward pharmacological side reactions to occur in the subject to whom they are so administered. In general, these compounds are ordinarily administered in dosages ranging from about 0.25 mg. to about 25 mg. per kg. of body weight per day, although variations will necessarily occur depending upon the weight and condition of the subject being treated and the particular route of administration chosen.

[5] = toxic side effects in diabetic rats, oral; format: in vivo, rat; details: 5.0 mg./kg. to 25 mg./kg.
Description: as §2

Compound	lowering sorbitol levels in the lens and sciatic nerve of diabetic subjects [1]	lowering galactitol levels in the lens of galactosemic subjects [2]	IC50 [3] [µM]	aldose reductase inhibitory activity [3]	control (i.e., inhibit) the formation of sorbitol levels in diabetic rats [4]	toxic side effects [5]
CN1CCC2(NC(=O)NC2=O)c2ccccc21.Cl (stereo not drawn) [Product of Example 1, 1'-methyl-1',2',3',4'-tetrahydro-spiro-[imidazolidine-4,4'-quinoline]-2,5-dione hydrochloride]	extremely effective	extremely effective	50	highly potent	–	–
CN1CCC2(NC(=O)NC2=O)c2cccnc21 (stereo not drawn) [Product of Example 2, 1'-methyl-1',2',3',4'-tetrahydro-spiro-[imidazolidine-4,4'-pyrido(2,3-b)pyridine]-2,5-dione]	extremely effective	extremely effective	10	highly potent	–	–
O=C1NC(=O)C2(CCNc3cc(Cl)ccc32)N1 (stereo not drawn) [Product of Example 3, 7'-chloro-1',2',3',4'-tetrahydro-spiro-[imidazolidine-4,4'-quinoline]-2,5-dione]	extremely effective	extremely effective	10	highly potent	–	–
O=C1NC(=O)C2(CCNc3ccc(Cl)cc32)N1 (stereo not drawn) [Product of Example 4, 6'-chloro-1',2',3',4'-tetrahydro-spiro-[imidazolidine-4,4'-quinoline]-2,5-dione]	extremely effective	extremely effective	1	highly potent	to a significantly high degree	without showing any substantial signs of toxic side effects
